Measured values reported in PubChem BioAssay AID2060599 (Molecular Pharmacology Branch, DTP, NCI, 2025).

System: 817829-284-R-J1-PDC complex spheroids, viability
Experiment: Anticancer human tumor 817829-284-R-J1-PDC patient-derived colon adenocarcinoma cell line growth inhibition [CLK]
Conditions: for viability, T/C: stronger effect = lower value
In short: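 Multi-cell-type spheroids combined patient-derived tumor cells with HUVEC endothelial cells and human mesenchymal stem cells. Paired agents were dosed in half-log steps down from about clinical Cmax, or from 10 microM where Cmax was unknown.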

[1] = curve of first compound, second compound 0.0316 µM
[2] = curve of first compound, second compound 0.1 µM
[3] = curve of first compound, second compound 0.316 µM
[4] = curve of first compound, second compound 1 µM
[5] = curve of first compound, second compound 3.16 µM
[6] = curve of first compound, second compound 10 µM
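Note: spheroids exposed to the agents for seven days before readout.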

`O=c1[nH]cc(F)c(=O)[nH]1` + CN1CCN(c2cc(C(=O)Nc3cc4cc(-c5cnn(C)c5)ccc4cn3)ccn2)CC1 was tested, and the IC50 [1] was 0.851 µM, the IC50 [2] was < 0.0316 µM and the IC50 [3] was < 0.0316 µM. The IC50 [4] was < 0.0316 µM, the IC50 [5] was < 0.0316 µM and the IC50 [6] was < 0.0316 µM. The viability, T/C (second compound 0.0316 µM, first compound 0.0316 µM) was 72.7%, the viability, T/C (second compound 0.0316 µM, first compound 0.1 µM) was 66.3% and the viability, T/C (second compound 0.0316 µM, first compound 0.316 µM) was 57.1%. For the same compound, the viability, T/C (second compound 0.0316 µM, first compound 1 µM) was 52.4%, the viability, T/C (second compound 0.0316 µM, first compound 3.16 µM) was 33.8% and the viability, T/C (second compound 0.0316 µM, first compound 10 µM) was 26.3%. It also gave a viability, T/C (second compound 0.1 µM, first compound 0.0316 µM) of 18.2%, a viability, T/C (second compound 0.1 µM, first compound 0.1 µM) of 17.6% and a viability, T/C (second compound 0.1 µM, first compound 0.316 µM) of 22.3%. For the same compound, the viability, T/C (second compound 0.1 µM, first compound 1 µM) was 20.8%, the viability, T/C (second compound 0.1 µM, first compound 3.16 µM) was 18.9% and the viability, T/C (second compound 0.1 µM, first compound 10 µM) was 15.9%. The viability, T/C (second compound 0.316 µM, first compound 0.0316 µM) was 2.25%, the viability, T/C (second compound 0.316 µM, first compound 0.1 µM) was 2.52% and the viability, T/C (second compound 0.316 µM, first compound 0.316 µM) was 1.94%. It also gave a viability, T/C (second compound 0.316 µM, first compound 1 µM) of 2.49%, a viability, T/C (second compound 0.316 µM, first compound 3.16 µM) of 2.36% and a viability, T/C (second compound 0.316 µM, first compound 10 µM) of 2.06%. For the same compound, the viability, T/C (second compound 1 µM, first compound 0.0316 µM) was 0.14%, the viability, T/C (second compound 1 µM, first compound 0.1 µM) was 0.12% and the viability, T/C (second compound 1 µM, first compound 0.316 µM) was 0.18%. The viability, T/C (second compound 1 µM, first compound 1 µM) was 0.07%, the viability, T/C (second compound 1 µM, first compound 3.16 µM) was 0.07% and the viability, T/C (second compound 1 µM, first compound 10 µM) was 0.05%. For the same compound, the viability, T/C (second compound 3.16 µM, first compound 0.0316 µM) was 0.14%, the viability, T/C (second compound 3.16 µM, first compound 0.1 µM) was 0.11% and the viability, T/C (second compound 3.16 µM, first compound 0.316 µM) was 0.11%. For the same compound, the viability, T/C (second compound 3.16 µM, first compound 1 µM) was 0.1%, the viability, T/C (second compound 3.16 µM, first compound 3.16 µM) was 0.15% and the viability, T/C (second compound 3.16 µM, first compound 10 µM) was 0.14%. For the same compound, the viability, T/C (second compound 10 µM, first compound 0.0316 µM) was 0.07%, the viability, T/C (second compound 10 µM, first compound 0.1 µM) was 0.08% and the viability, T/C (second compound 10 µM, first compound 0.316 µM) was 0.1%. The viability, T/C (second compound 10 µM, first compound 1 µM) was 0.11%, the viability, T/C (second compound 10 µM, first compound 3.16 µM) was 0.13% and the viability, T/C (second compound 10 µM, first compound 10 µM) was 0.08%.
Work on `CCN1CCN(Cc2ccc(Nc3ncc(F)c(-c4cc(F)c5nc(C)n(C(C)C)c5c4)n3)nc2)CC1` yielded a viability, T/C (compound 0.00316 µM) of 79.4%, a viability, T/C (compound 0.01 µM) of 55.3% and a viability, T/C (compound 0.0316 µM) of 57.5%. It also gave a viability, T/C (compound 0.1 µM) of 50.8%, a viability, T/C (compound 0.316 µM) of 85.4% and a viability, T/C (compound 1 µM) of 39.3%. For the same compound, the IC50 (curve of compound) was > 1 µM.
`COc1ccc([C@@H](O)c2cc(-c3ncnc4cc(N5CCOCC5)ccc34)c(F)cc2Cl)nn1` gave a viability, T/C (compound 0.0316 µM) of 117%, a viability, T/C (compound 0.1 µM) of 105% and a viability, T/C (compound 0.316 µM) of 86.4%. For the same compound, the viability, T/C (compound 1 µM) was 48.6%, the viability, T/C (compound 3.16 µM) was 31.6% and the viability, T/C (compound 10 µM) was 21.2%. It also gave an IC50 (curve of compound) of 1.04 µM.
For `CC(C)CC(NC(=O)C(Cc1ccccc1)NC(=O)c1cnccn1)B(O)O` (stereo not drawn) + CNC(=O)c1ccc(Nc2nc(OC3CCCC3)c3c(-c4ccc5nc(C)oc5c4)c[nH]c3n2)c(OC)c1, the IC50 [1] was < 0.000949 µM, the IC50 [2] was < 0.000949 µM and the IC50 [3] was < 0.000949 µM. The IC50 [4] was < 0.000949 µM, the IC50 [5] was < 0.000949 µM and the IC50 [6] was < 0.000949 µM. The viability, T/C (second compound 0.0316 µM, first compound 0.000949 µM) was 31.9%, the viability, T/C (second compound 0.0316 µM, first compound 0.003 µM) was 0.67% and the viability, T/C (second compound 0.0316 µM, first compound 0.00949 µM) was 0.14%. It also gave a viability, T/C (second compound 0.0316 µM, first compound 0.03 µM) of 0.16%, a viability, T/C (second compound 0.0316 µM, first compound 0.0949 µM) of 0.14% and a viability, T/C (second compound 0.0316 µM, first compound 0.3 µM) of 0.09%. The viability, T/C (second compound 0.1 µM, first compound 0.000949 µM) was 25%, the viability, T/C (second compound 0.1 µM, first compound 0.003 µM) was 0.93% and the viability, T/C (second compound 0.1 µM, first compound 0.00949 µM) was 0.22%. The viability, T/C (second compound 0.1 µM, first compound 0.03 µM) was 0.17%, the viability, T/C (second compound 0.1 µM, first compound 0.0949 µM) was 0.11% and the viability, T/C (second compound 0.1 µM, first compound 0.3 µM) was 0.1%. For the same compound, the viability, T/C (second compound 0.316 µM, first compound 0.000949 µM) was 23%, the viability, T/C (second compound 0.316 µM, first compound 0.003 µM) was 0.45% and the viability, T/C (second compound 0.316 µM, first compound 0.00949 µM) was 0.13%. It also gave a viability, T/C (second compound 0.316 µM, first compound 0.03 µM) of 0.6%, a viability, T/C (second compound 0.316 µM, first compound 0.0949 µM) of 0.08% and a viability, T/C (second compound 0.316 µM, first compound 0.3 µM) of 0.13%. The viability, T/C (second compound 1 µM, first compound 0.000949 µM) was 14.7%, the viability, T/C (second compound 1 µM, first compound 0.003 µM) was 0.18% and the viability, T/C (second compound 1 µM, first compound 0.00949 µM) was 0.14%. The viability, T/C (second compound 1 µM, first compound 0.03 µM) was 0.09%, the viability, T/C (second compound 1 µM, first compound 0.0949 µM) was 0.13% and the viability, T/C (second compound 1 µM, first compound 0.3 µM) was 0.16%. For the same compound, the viability, T/C (second compound 3.16 µM, first compound 0.000949 µM) was 12.5%, the viability, T/C (second compound 3.16 µM, first compound 0.003 µM) was 0.39% and the viability, T/C (second compound 3.16 µM, first compound 0.00949 µM) was 0.14%. It also gave a viability, T/C (second compound 3.16 µM, first compound 0.03 µM) of 0.1%, a viability, T/C (second compound 3.16 µM, first compound 0.0949 µM) of 0.22% and a viability, T/C (second compound 3.16 µM, first compound 0.3 µM) of 0.09%. For the same compound, the viability, T/C (second compound 10 µM, first compound 0.000949 µM) was 11.3%, the viability, T/C (second compound 10 µM, first compound 0.003 µM) was 0.15% and the viability, T/C (second compound 10 µM, first compound 0.00949 µM) was 0.16%. The viability, T/C (second compound 10 µM, first compound 0.03 µM) was 0.14%, the viability, T/C (second compound 10 µM, first compound 0.0949 µM) was 0.23% and the viability, T/C (second compound 10 µM, first compound 0.3 µM) was 0.11%.
